Measurements: patent US20250092052A1, “HETEROARYL DERIVATIVE COMPOUNDS, AND USES THEREOF” (VORONOI INC., priority 2023, published 2025)

Columns and labels:
human PKMYT1 enzyme = human PKMYT1 enzyme (Homo sapiens (Human), UniProt Q99640); assay: Inhibitory activity against PKMYT1 kinase (ADP-Glo kinase assay); type: biochemical; conditions: purified human PKMYT1, ATP, CDK1 substrate, 25° C., 1 hour
Experimental: To evaluate the inhibitory activity of the compounds synthesized according to the above Examples against PKMYT1 kinase, the Example compounds were reacted with purified human PKMYT1 enzyme and assessed using the following method.
The reaction buffer was used as a composition of 200 mM Tris-HCl pH 7.4, 100 mM MgCl2, 0.5 mg/mL BSA, 0.25 mM DTT, and the reactions of all the tests were carried out on the reaction buffer.
The compound was diluted in 12 steps using a serial dilution method from a 10 mM DMSO stock, and the enzyme activity was measured at a final compound concentration of 10˜0.00005645 μM. During the test, the enzyme activity was confirmed using in vitro ADP-Glo™kinase assay (Promega) after reacting with the proper concentration of PKMYT1 enzyme, purified ATP, and enzyme substrate (CDK1) at 25° C. for 1 hour. At a ratio of 2:2:1, an enzyme-active reaction solution, an ADP-Glo reaction solution, and an enzyme-active detection solution were reacted to measure the inhibition of the enzyme's activity with luminescence. Based on the […] of the enzyme activity of the solvent control that was not treated with the compound, the degree of enzyme activity inhibition was calculated according to the treatment concentration of each compound, and the concentration of each compound that inhibits 50% of enzyme activity was determined as IC50 (nM) value and the value was obtained by using GraphPad Prism 8.3.0 (GraphPad software Inc., San Diego) software.

Myt1-KD = Myt1-KD (Homo sapiens (Human), UniProt Q99640); assay: Thermal Shift Assay, compound binding to Myt1-KD; conditions: 2 μM protein, 100 μM compound, Tm of compound minus Tm of DMSO
Chain of Myt1-KD (Q99640 110-359): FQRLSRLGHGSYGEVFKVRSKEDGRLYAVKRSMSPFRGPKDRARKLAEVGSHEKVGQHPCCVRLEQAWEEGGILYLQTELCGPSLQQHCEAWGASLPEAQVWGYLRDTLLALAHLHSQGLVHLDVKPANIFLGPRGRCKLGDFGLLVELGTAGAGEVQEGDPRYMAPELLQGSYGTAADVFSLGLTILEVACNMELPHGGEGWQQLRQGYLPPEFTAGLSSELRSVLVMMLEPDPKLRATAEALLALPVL
Experimental: The degree of compound binding to Myt1-KD was tested using a Thermal Shift Assay. Each protein was diluted to a concentration of 2 μM in 50 mM Tris (pH 7.5) with 100 μM of the compound. SYPRO™ Orange dye was added to the solution, and the plate was transferred to a QuantStudio3 Real-Time PCR System (Applied Biosystems by Thermo Fisher Scientific). […] The degree of protein melting in the presence of the compound compared to DMSO was calculated according to the following Equation 1. ΔTm=Tm (Temperature of Example compound)−Tm (Temperature of DMSO) [Equation 1]

Chain of human PKMYT1 enzyme (Q99640 whole entry): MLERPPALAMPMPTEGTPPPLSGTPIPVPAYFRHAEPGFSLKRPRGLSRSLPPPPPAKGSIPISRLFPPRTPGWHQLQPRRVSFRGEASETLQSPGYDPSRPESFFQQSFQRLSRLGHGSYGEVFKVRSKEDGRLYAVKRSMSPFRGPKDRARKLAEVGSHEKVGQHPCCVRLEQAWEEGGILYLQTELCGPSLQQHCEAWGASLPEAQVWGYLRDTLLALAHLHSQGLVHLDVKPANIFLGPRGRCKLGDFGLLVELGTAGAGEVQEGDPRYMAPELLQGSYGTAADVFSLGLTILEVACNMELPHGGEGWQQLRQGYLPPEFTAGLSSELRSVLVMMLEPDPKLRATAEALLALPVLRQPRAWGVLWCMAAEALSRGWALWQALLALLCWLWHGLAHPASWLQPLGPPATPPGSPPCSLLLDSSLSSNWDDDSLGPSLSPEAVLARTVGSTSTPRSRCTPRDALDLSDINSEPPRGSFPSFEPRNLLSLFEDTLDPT

Row | SMILES | IC50 (human PKMYT1 enzyme) | ΔTm at 100 µM (Myt1-KD) | ΔTm (° C.) (Myt1-KD)
1 | Cc1ccc(O)c(C)c1-n1c(N)c(C(=O)c2cc3sccc3[nH]2)c2nccnc21 (atropisomer, axis not shown) [Example 5, (S)-(6-amino-5-(3-hydroxy-2,6-dimethylphenyl)-5H-pyrrolo[2,3-b]pyrazin-7-yl)(4H-thieno[3,2-b]pyrrol-5-yl)methanone] | ≤ 200 nM | ≥ 5 °C | 
2 | Cc1ccc(O)c(C)c1-n1c(N)c(C(=O)c2cc3occc3[nH]2)c2nccnc21 (atropisomer, axis not shown) [Example 7, (S)-(6-amino-5-(3-hydroxy-2,6-dimethylphenyl)-5H-pyrrolo[2,3-b]pyrazin-7-yl)(4H-furo[3,2-b]pyrrol-5-yl)methanone] | ≤ 200 nM | ≥ 5 °C | 
3 | Cc1ccc(O)c(C)c1-n1c(N)c(C(=O)c2cc3ccccc3[nH]2)c2nc(C)c(C)nc21 (atropisomer, axis not shown) [Example 9, (S)-(6-amino-5-(3-hydroxy-2,6-dimethylphenyl)-2,3-dimethyl-5H-pyrrolo[2,3-b]pyrazin-7-yl)(1H-indol-2-yl)methanone] | 200 to 500 nM | ≥ 5 °C | 
4 | Cc1ccc(O)c(C)c1-n1c(N)c(C(=O)c2cc3cnc(N4CCOCC4)cc3[nH]2)c2nc(C)c(C)nc21 (atropisomer, axis not shown) [Example 15, (S)-(6-amino-5-(3-hydroxy-2,6-dimethylphenyl)-2,3-dimethyl-5H-pyrrolo[2,3-b]pyrazin-7-yl)(6-morpholino-1H-pyrrolo[3,2-c]pyridin-2-yl)methanone] | ≤ 200 nM | ≥ 5 °C | 
5 | Cc1ccc(O)c(C)c1-n1c(N)c(C(=O)c2cc3occc3[nH]2)c2nc(C)c(C)nc21 (atropisomer, axis not shown) [Example 18, (R)-(6-amino-5-(3-hydroxy-2,6-dimethylphenyl)-2,3-dimethyl-5H-pyrrolo[2,3-b]pyrazin-7-yl)(4H-furo[3,2-b]pyrrol-5-yl)methanone] | ≤ 200 nM |  | A (ΔTm (° C.) ≥ 5° C.)
6 | Cc1ccc(O)c(C)c1-n1c(N)c(C(=O)c2cc3cc(CN4CCOCC4)ccc3[nH]2)c2nccnc21 (atropisomer, axis not shown) [Example 19, (S)-(6-amino-5-(3-hydroxy-2,6-dimethylphenyl)-5H-pyrrolo[2,3-b]pyrazin-7-yl)(5-(morpholinomethyl)-1H-indol-2-yl)methanone] | ≤ 200 nM | ≥ 5 °C | 
7 | Cc1ccc(O)c(C)c1-n1c(N)c(C(=O)c2cc3cc(N4CCN(C)CC4)ccc3[nH]2)c2nccnc21 (atropisomer, axis not shown) [Example 22, (R)-(6-amino-5-(3-hydroxy-2,6-dimethylphenyl)-5H-pyrrolo[2,3-b]pyrazin-7-yl)(5-(4-methylpiperazin-1-yl)-1H-indol-2-yl)methanone] | ≤ 200 nM |  | A (ΔTm (° C.) ≥ 5° C.)
8 | Cc1ccc(O)c(C)c1-n1c(N)c(C(=O)c2cc3ccncc3[nH]2)c2nccnc21 (atropisomer, axis not shown) [Example 24, (S)-(6-amino-5-(3-hydroxy-2,6-dimethylphenyl)-5H-pyrrolo[2,3-b]pyrazin-7-yl)(1H-pyrrolo[2,3-c]pyridin-2-yl)methanone] |  | ≤ 5 °C | 
9 | Cc1ccc(O)c(C)c1-n1c(N)c(C(=O)c2cc3ccncc3[nH]2)c2nccnc21 (atropisomer, axis not shown) [Example 25, (R)-(6-amino-5-(3-hydroxy-2,6-dimethylphenyl)-5H-pyrrolo[2,3-b]pyrazin-7-yl)(1H-pyrrolo[2,3-c]pyridin-2-yl)methanone] | ≤ 200 nM |  | A (ΔTm (° C.) ≥ 5° C.)
10 | Cc1ccc(O)c(C)c1-n1c(N)c(C(=O)c2cc3ncccc3[nH]2)c2nccnc21 (atropisomer, axis not shown) [Example 26, (S)-(6-amino-5-(3-hydroxy-2,6-dimethylphenyl)-5H-pyrrolo[2,3-b]pyrazin-7-yl)(1H-pyrrolo[3,2-b]pyridin-2-yl)methanone] |  | ≥ 5 °C | 
11 | Cc1ccc(O)c(C)c1-n1c(N)c(C(=O)c2cc3ncccc3[nH]2)c2nccnc21 (atropisomer, axis not shown) [Example 27, (R)-(6-amino-5-(3-hydroxy-2,6-dimethylphenyl)-5H-pyrrolo[2,3-b]pyrazin-7-yl)(1H-pyrrolo[3,2-b]pyridin-2-yl)methanone] |  |  | B (5 °C ≥ ΔTm (° C.))
12 | Cc1ccc(O)c(C)c1-n1c(N)c(C(=O)c2cc3ccccc3[nH]2)c2nccnc21 (single isomer, unassigned) [Example 1] | ≤ 200 nM | ≥ 5 °C | 
13 | Cc1ccc(O)c(C)c1-n1c(N)c(C(=O)c2nc3ccccc3[nH]2)c2cccnc21 [Example 3, (S)-(2-amino-1-(3-hydroxy-2,6-dimethylphenyl)-1H-pyrrolo[2,3-b]pyridin-3-yl)(1H-benzo[d]imidazol-2-yl)methanone] | ≤ 200 nM |  | A (ΔTm (° C.) ≥ 5° C.)
14 | Cc1ccc(O)c(C)c1-n1c(N)c(C(=O)c2cc3sccc3[nH]2)c2nc(C)c(C)nc21 [Example 13, (S)-(6-amino-5-(3-hydroxy-2,6-dimethylphenyl)-2,3-dimethyl-5H-pyrrolo[2,3-b]pyrazin-7-yl)(4H-thieno[3,2-b]pyrrol-5-yl)methanone] | ≤ 200 nM |  | A (ΔTm (° C.) ≥ 5° C.)
15 | Cc1ccc(O)c(C)c1-n1c(N)c(C(=O)c2cc3sccc3[nH]2)c2nc(C)c(C)nc21 [Example 14, (R)-(6-amino-5-(3-hydroxy-2,6-dimethylphenyl)-2,3-dimethyl-5H-pyrrolo[2,3-b]pyrazin-7-yl)(4H-thieno[3,2-b]pyrrol-5-yl)methanone] |  |  | B (5 °C ≥ ΔTm (° C.))
16 | Cc1ccc(O)c(C)c1-n1c(N)c(C(=O)c2ccc[nH]2)c2nccnc21 [Example 23, (6-amino-5-(3-hydroxy-2,6-dimethylphenyl)-5H-pyrrolo[2,3-b]pyrazin-7-yl)(1H-pyrrol-2-yl)methanone] | ≤ 200 nM | ≤ 5 °C | 
17 | Cc1ccc(O)c(C)c1-n1c(N)c(C(=O)c2cc3cc(P(C)(C)=O)ccc3[nH]2)c2nccnc21 [Example 40, (6-amino-5-(3-hydroxy-2,6-dimethylphenyl)-5H-pyrrolo[2,3-b]pyrazin-7-yl)(5-(dimethylphosphoryl)-1H-indol-2-yl)methanone] |  | ≥ 5 °C | 
